Paper PMC9916658, “Design and Synthesis of New Quinazolin-4-one Derivatives with Negative mGlu7 Receptor Modulation Activity and Antipsychotic-Like Properties” (International Journal of Molecular Sciences, 2023)
≈ marks a conversion by molar mass, not a printed value. Read-outs that look alike come from different tables or passages of the source.

Experiments:
[1] = Pharmacokinetics and brain uptake in mice after i.p. administration; format: in vivo, mouse (Albino Swiss); details: 10 mg/kg i.p.; for Tmax / AUC(0-t) / half-life / Cmax: ip
Protocol: Compounds were administered to mice at a dose of 10 mg/kg i.p. Plasma and tissue samples were collected at 0.25, 0.50, 1.0, 2.0, 4.0, 6.0, and 24 h. Plasma and tissue samples from all drug-treated animals were thawed at room temperature prior to use. The standard protocol for sample preparation was used: 200 μL of acetonitrile was added to the Eppendorf tubes with 50 μL of studied plasma samples or tissue homogenate. Samples were mixed for 5 min on a mixer at 25 °C and 1400 rpm. The tubes were then centrifuged at 2000× g for 15 min at 4 °C. A total of 180 μL of each supernatant was transferred to a plate well. Finally, each sample was injected into the LC–MS column. Calibration curve serial dilution method: Plasma was spiked with a standard at different concentrations. Acetonitrile was added. After mixing and centrifugation, the supernatant was collected.
Chromatographic conditions. Plasma and tissue samples from all drug-treated animals at selected time points were analyzed using a previously developed nonvalidated LC–MS/MS method. […] The LC–MS analysis was carried out on a Bruker amaZon SL mass spectrometer using the positive/negative ion ESI mode. Chromatographic separation was achieved on an Ascentis Express C18 column (5 cm × 2.1 mm, 2.7 μM, Supelco Technologies) at room temperature with a thermostatted column oven. A gradient elution of eluents A (acetonitrile (LiChrosolv, Reag. Ph Eur) + 0.1% formic acid (Sigma Aldrich, 98–100%)) and B (water + 0.1% formic acid) were used for separation. The flow rate was set at 1 mL/min. The injection volume was 20 μL, and the time of injection was 4 min.
Mass spectrometric conditions. An ion trap mass spectrometer (Bruker amaZon SL, Bruker, Bremen, Germany) was equipped with an electrospray source operating in the positive/negative ion mode. Data were collected and processed using Bruker Quant Analysis (Bruker, Bremen, Germany) software. A quantification of the analytes was performed in the SIM mode.

[2] = test system: mock T-REx 293 cell line; test: Off-target T-REx screening, forskolin-induced cAMP in untransfected cells; format: cell-based
Description: Off-target (T-Rex screening)
Figure S5. Activity of compounds ALX-065 and ALX-171 in forskolin-induced cAMP accumulation in
untransfected cells of the T-REx 293 line. Similar to reference mGlu7 receptor ADX71743, no effects of the tested […]

[3] = Kinetic solubility assay in HBSS buffer; format: physicochemical; details: aqueous buffer, kinetic from dmso stock; Hanks-HEPES (HBSS buffer), pH 7.4; read-out: KS (kinetic solubility)
Protocol: The kinetic solubility assay was performed to determine the solubility of the compounds in the in vitro assay conditions. The assay investigated the solubility based on the precipitation process in the HBSS buffer. For the preparation of the assay buffer, the following compounds were dissolved in 800 mL purified water: • − 130 mM sodium chloride, NaCl (7.600 g); • − 5.4 mM potassium chloride, KCl (0.403 g); • − 0.8 mM magnesium sulfate, MgSO4 × 7H2O (0.197 g); • − 0.9 mM sodium phosphate monobasic, NaH2PO4 × 2H2O (0.140 g); • − 25 mM D-glucose (4.500 g); • − 20 mM HEPES sodium salt (5.210 g).
The buffer was adjusted to pH 7.4, and the following compound was added to the mixture: • − 1.8 mM calcium chloride, CaCl2 × 2H2O (0.265 g).
The total volume was adjusted to 1000 mL.
The investigated compounds were diluted (in triplicate) with the HBSS buffer at pH 7.4 to a final concentration of 500 μM.
The mixture was shaken on a filter plate at 500 rpm for 1.5 h at RT. After incubation, the filter plate was placed inside a vacuum manifold and filtrated. Samples were collected and the concentration of the filtrate was determined spectrophotometrically by measuring the UV–VIS absorption spectrum. Concentrations were calculated based on equations resulting from the calibration curves (in duplicates, 8 calibration points, dilution Factor ×2, 500 µM → 3.91 µM, including blank sample).

[4] = biological target: T1, recombinant human mGlu7 receptor (FAST-0154C) (Homo sapiens, UniProt Q14831); test: NAM mGlu7 activity on CHO-K1 cell line, cAMP HTRF (EuroscreenFast protocol); format: cell-based; details: CHO-K1 human mGlu7, agonist L-AP4 at EC80; for % inhibition at maximal concentration: range 1 nM – 25 µM; for IC50: read-out: IC50 (CHO-K1, Figure S4)
T1 construct: host or cells: CHO-K1
T1 sequence (Q14831 35-915): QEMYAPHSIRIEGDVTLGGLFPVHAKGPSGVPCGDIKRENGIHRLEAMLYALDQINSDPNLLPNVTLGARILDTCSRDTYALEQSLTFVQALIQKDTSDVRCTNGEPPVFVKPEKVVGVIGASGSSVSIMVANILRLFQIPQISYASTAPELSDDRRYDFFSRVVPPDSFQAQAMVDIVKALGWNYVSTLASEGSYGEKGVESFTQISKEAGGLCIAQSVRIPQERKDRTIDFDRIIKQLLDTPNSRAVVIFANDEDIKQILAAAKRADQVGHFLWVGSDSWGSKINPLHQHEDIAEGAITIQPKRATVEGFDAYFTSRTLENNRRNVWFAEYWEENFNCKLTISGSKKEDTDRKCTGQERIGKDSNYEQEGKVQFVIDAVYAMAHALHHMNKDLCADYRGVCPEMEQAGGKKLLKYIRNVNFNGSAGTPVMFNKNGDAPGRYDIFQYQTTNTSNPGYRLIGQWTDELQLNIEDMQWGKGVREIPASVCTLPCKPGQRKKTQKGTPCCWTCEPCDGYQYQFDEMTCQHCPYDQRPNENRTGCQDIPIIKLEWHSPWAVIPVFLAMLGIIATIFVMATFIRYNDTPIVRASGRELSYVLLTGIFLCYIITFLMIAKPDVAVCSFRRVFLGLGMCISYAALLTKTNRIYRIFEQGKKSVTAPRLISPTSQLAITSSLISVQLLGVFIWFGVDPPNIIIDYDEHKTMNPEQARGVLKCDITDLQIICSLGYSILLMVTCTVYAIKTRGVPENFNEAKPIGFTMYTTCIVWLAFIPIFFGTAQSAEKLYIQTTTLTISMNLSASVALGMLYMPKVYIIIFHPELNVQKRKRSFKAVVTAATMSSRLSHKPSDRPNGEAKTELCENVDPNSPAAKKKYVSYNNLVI
Description: with inducible expression of human mGlu7 receptor. […]
2.2. NAM mGlu7 receptor activity on CHO-K1 cell line according to EuroscreenFast protocol
ALX-065 and ALX-171 were testing for negative allosteric modulator (NAM) activity on alternative […]
mGlu7 cell line (recombinant human mGlu7 receptor (FAST-0154C) using cAMP HTRF functional assay) […]
by EuroscreenFast company according to the provided methodology.
Receptor Accession Cell line Reference Reference
Number agonist antagonist
Compounds were tested for NAM activity at the human mGlu7 receptor (FAST-0154C) in dose […]
response and in duplicates (range concentration: 1 nM – 25 µM) […]
cAMP HTRF assay for Gi coupled receptor
CHO-K1 cells expressing recombinant human mGlu7 receptor (FAST-0154C) grown prior to the test […]
inmedia without antibiotic are detached by gentle flushing with PBS-EDTA (5 mM EDTA), recovered […]
by centrifugation and resuspended in assay buffer (KRH: 5 mM KCl, 1.25 mM MgSO4, 124 mM NaCl, […]
25 mM HEPES, 13.3 mM Glucose, 1.25 mM KH2PO4, 1.45 mM CaCl2, 0.5 g/L BSA, supplemented with 1 […]
Dose response curves are performed in parallel with the reference compounds.
For antagonist/NAM test (96 well): 12 µl of cells are mixed with 6 µl of the test compound at increasing concentrations and then incubated 10 min. Thereafter 6 µl of the mix of the forskolin and reference agonist is added at a final concentration corresponding to the historical EC80. The plates are then incubated for 30 min at room temperature. After addition of the lysis buffer and 1 hour incubation, cAMP concentrations are estimated, according to the manufacturer specification, with the HTRF kit. […]

[5] = Albino Swiss, mouse, plasma and brain, mice, read-out: Tmax (plasma and brain) (converted)
[6] = mouse Albino Swiss, brain, read-out: AUC0-t, brain
[7] = mouse Albino Swiss, brain, read-out: T1/2, brain (converted)
[8] = mouse Albino Swiss, brain, read-out: Tmax, brain
[9] = mouse Albino Swiss, plasma, read-out: AUC0-t, plasma
[10] = mouse Albino Swiss, plasma, read-out: T1/2, plasma (converted)
[11] = mouse Albino Swiss, plasma, read-out: Tmax, plasma

**Q.** Which Tmax [1, 5] does the source give for `Cn1c(-c2ccccc2Cl)nc2ccc(-c3ccccc3)cc2c1=O` [ALX-065, 2-(2-chlorophenyl)-3-methyl-6-phenylquinazolin-4(3H)-one] here?
**A.** 15 min

**Q.** What about the AUC(0-t) [1, 6] of the same compound?
**A.** 1.32 µM·h

**Q.** What about the half-life [1, 7] of the same compound?
**A.** 29.4 min

**Q.** What about the Tmax [1, 8] of the same compound?
**A.** 15 min

**Q.** And the Cmax ([1]; mouse Albino Swiss, plasma)?
**A.** 2.28 µM

**Q.** And the AUC(0-t) [1, 9]?
**A.** 1.99 µM·h

**Q.** And the half-life [1, 10]?
**A.** 78.6 min

**Q.** And the Tmax [1, 11]?
**A.** 15 min

**Q.** What about the “Cmax, brain” value ([1]; mouse Albino Swiss, brain) of the same compound?
**A.** 1.81 µM/L

**Q.** And the “effect on forskolin-induced cAMP accumulation in untransfected cells” value [2]?
**A.** no effects

**Q.** And the solubility kinetic at 1.5 h [3]?
**A.** 6.88 µM (≈ 2.39 µg/mL)

**Q.** What about the “% inhibition at maximal concentration” value [4] of the same compound?
**A.** 99.62%

**Q.** What about the IC50 [4] of the same compound?
**A.** 3.74 µM

**Q.** With `COc1cccc(-c2ccc3nc(-c4ccccc4Cl)n(C)c(=O)c3c2)c1OC` [ALX-171, 2-(2-chlorophenyl)-6-(2,3-dimethoxyphenyl)-3-methylquinazolin-4(3H)-one] as the compound, how does the Tmax [1, 5] read?
**A.** 15 min

**Q.** What about the AUC(0-t) [1, 6] of the same compound?
**A.** 13.8 µM·h

**Q.** And the half-life [1, 7]?
**A.** 334 min

**Q.** And the Tmax [1, 8]?
**A.** 15 min

**Q.** What about the Cmax ([1]; mouse Albino Swiss, plasma) of the same compound?
**A.** 4.46 µM

**Q.** What about the AUC(0-t) [1, 9] of the same compound?
**A.** 13.4 µM·h

**Q.** What about the half-life [1, 10] of the same compound?
**A.** 312 min

**Q.** What about the Tmax [1, 11] of the same compound?
**A.** 30 min

**Q.** What about the “Cmax, brain” value ([1]; mouse Albino Swiss, brain) of the same compound?
**A.** 2.52 µM/L

**Q.** What about the “effect on forskolin-induced cAMP accumulation in untransfected cells” value [2] of the same compound?
**A.** no effects

**Q.** And the solubility kinetic at 1.5 h [3]?
**A.** 15.2 µM (≈ 6.2 µg/mL)

**Q.** And the “% inhibition at maximal concentration” value [4]?
**A.** 105.21%

**Q.** And the IC50 [4]?
**A.** 5.6 µM

**Q.** Which results are given for `CCc1nc2c(o1)CC(c1ccc(C)cc1C)CC2=O` (stereo not drawn) [ADX71743, reference compound]?
**A.** AUC(0-t) [1, 6]: 2.27 µM·h; AUC(0-t) [1, 9]: 1.9 µM·h; Cmax, brain ([1]; mouse Albino Swiss, brain): 3.38 µM/L; effect on forskolin-induced cAMP accumulation in untransfected cells [2]: no effects; solubility kinetic at 1.5 h [3]: 510 µM (≈ 137 µg/mL); % inhibition at maximal concentration [4]: 62.42%; IC50 [4]: 0.43 µM
